PubChem BioAssay AID602168 (The Scripps Research Institute Molecular Screening Center, 2012)
pIC50: −log10 of the molar value. Active and inactive are the calls of the source. No rule for the calls is given here.

Molecular target: Nuclear receptor coactivator 1 (Homo sapiens) (UniProt Q15788)
Experiment: NCOA1 reporter inhibition potency – cell-based, luminescence, counter-screen for SRC3 inhibitor project, dose response (AID 602168)
Settings: Cell-based SRC1 luciferase reporter

Sequence of Nuclear receptor coactivator 1 (Homo sapiens) (Q15788 whole entry, looked up): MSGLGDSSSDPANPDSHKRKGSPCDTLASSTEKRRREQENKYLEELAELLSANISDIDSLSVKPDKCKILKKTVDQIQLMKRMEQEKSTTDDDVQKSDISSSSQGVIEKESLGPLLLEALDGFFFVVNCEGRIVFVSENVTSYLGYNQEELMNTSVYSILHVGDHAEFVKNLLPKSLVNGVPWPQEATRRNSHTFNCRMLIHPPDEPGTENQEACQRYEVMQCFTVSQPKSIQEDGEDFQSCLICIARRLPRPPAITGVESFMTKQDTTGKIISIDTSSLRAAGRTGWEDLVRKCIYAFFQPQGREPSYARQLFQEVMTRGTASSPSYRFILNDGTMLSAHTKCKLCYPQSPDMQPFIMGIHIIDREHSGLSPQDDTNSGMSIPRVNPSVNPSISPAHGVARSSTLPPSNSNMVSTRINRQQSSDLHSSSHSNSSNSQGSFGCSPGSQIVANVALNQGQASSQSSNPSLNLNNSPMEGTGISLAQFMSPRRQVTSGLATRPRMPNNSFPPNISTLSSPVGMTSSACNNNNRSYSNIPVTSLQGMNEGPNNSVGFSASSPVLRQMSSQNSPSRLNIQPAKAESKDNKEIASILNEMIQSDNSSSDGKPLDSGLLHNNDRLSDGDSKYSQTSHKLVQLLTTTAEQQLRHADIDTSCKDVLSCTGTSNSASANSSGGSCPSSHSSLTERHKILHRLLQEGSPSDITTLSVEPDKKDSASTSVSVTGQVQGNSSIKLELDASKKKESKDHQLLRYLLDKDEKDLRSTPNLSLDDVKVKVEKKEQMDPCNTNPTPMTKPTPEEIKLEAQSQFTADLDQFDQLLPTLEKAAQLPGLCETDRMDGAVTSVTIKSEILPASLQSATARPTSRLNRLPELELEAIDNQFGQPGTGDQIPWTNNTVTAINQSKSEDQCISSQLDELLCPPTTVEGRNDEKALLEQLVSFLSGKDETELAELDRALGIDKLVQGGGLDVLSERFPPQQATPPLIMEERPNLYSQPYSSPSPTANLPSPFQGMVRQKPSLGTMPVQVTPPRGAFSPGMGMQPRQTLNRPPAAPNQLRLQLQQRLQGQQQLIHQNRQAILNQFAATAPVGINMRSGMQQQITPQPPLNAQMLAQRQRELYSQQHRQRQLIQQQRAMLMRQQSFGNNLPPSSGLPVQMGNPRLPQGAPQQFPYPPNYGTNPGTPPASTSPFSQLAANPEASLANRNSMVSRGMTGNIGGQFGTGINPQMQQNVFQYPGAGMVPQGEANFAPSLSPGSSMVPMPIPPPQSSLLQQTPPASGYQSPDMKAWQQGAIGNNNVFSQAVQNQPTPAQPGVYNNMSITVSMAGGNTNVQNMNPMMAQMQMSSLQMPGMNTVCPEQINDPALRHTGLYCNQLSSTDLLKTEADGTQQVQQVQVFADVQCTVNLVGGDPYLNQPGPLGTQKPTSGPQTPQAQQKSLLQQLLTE

Row | SMILES | IC50 | pIC50
1 | COc1cccc(/C=N/Nc2ccc([N+](=O)[O-])cn2)c1O | > 35.9 µM (inactive) | 
2 | Cc1cc(/C=C2\Cc3ccccc3C2=O)c(C)n1-c1ccccc1 | inactive | 
3 | COC(=O)c1cc(S(=O)(=O)NCCc2ccc(Cl)cc2)c[nH]1 | inactive | 
4 | Cc1ccc(C(=O)O/N=C(\N)c2ccccn2)c(Cl)c1 | > 35.9 µM (inactive) | 
5 | Cc1c(Cl)cccc1NC(=O)Nc1ccccc1C(N)=O | > 35.9 µM (inactive) | 
6 | O=S(=O)(/C(=C\c1ccc(C(F)(F)F)cc1)c1nc2ccccc2[nH]1)c1ccccc1 | > 12 µM (inactive) | 
7 | CC(C)(C)c1cc(C(=O)N/N=C/c2ccc(O)cc2)n(-c2ccccc2)n1 | > 35.9 µM (inactive) | 
8 | Cc1cc(C(=O)COC(=O)C2=COCCO2)c(C)n1-c1ccccc1 | inactive | 
9 | c1csc(Cc2nn3c(-c4ccncc4)nnc3s2)c1 | inactive | 
10 | COc1ccc(C(C(=O)NC2CCCCC2)N(C(=O)CCl)c2ccc(Cl)cc2)cc1 (configuration not stated) | inactive | 
11 | O=S(=O)(c1ccc(F)cc1)c1snnc1-c1ccccc1 | > 35.9 µM (inactive) | 
12 | Fc1ccc(CSc2nnc(-c3ccncc3)o2)cc1 |  | 5.47
13 | CN(C)/C=C/C(=O)c1ccc2noc(-c3ccccc3)c2c1 | inactive | 
14 | Cc1nc([N+](=O)[O-])c(Sc2nc3ccccc3n2C)n1Cc1ccccc1 | > 35.9 µM (inactive) | 
15 | CC(=O)c1cccc(-c2csc3ncnc(Sc4nnnn4C)c23)c1 | > 35.9 µM (inactive) | 
16 | CCOC(=O)C(C(C)=O)c1c(Br)c(O)c(O)c2c(C(=O)c3ccc(C)cc3)coc12 (configuration not stated) | > 35.9 µM (inactive) | 
17 | O=C(Nc1cccnc1)c1ccc(C(=O)Nc2cccnc2)cc1 | > 35.9 µM (inactive) | 
18 | Cc1nnc(SC(=O)N2c3ccccc3Sc3ccccc32)s1 | > 35.9 µM (inactive) | 
19 | Cc1nc(N)nc(N)c1-c1ccc(Cl)c(Cl)c1 |  | 5.27
20 | COc1ccc(Nc2ccncc2[N+](=O)[O-])cc1 |  | 5.04
21 | COc1cc2c(cc1OC)C(C)N(C(=O)c1cccc([N+](=O)[O-])c1)CC2 (configuration not stated) | inactive | 
22 | COC(CN(C(=O)CCl)C(C(=O)NC1CCCCC1)c1ccccc1C)OC (configuration not stated) | inactive | 
23 | COc1cccc(CNc2ncnc3ccc(-c4c(C)noc4C)cc23)c1 | > 35.9 µM (inactive) | 
24 | CCc1nc(N)nc(N)c1-c1ccc(Cl)c([N+](=O)[O-])c1 |  | 6.22
25 | CC(C)(C)c1ccc(Oc2ccc(N)cn2)cc1 | inactive | 
26 | CC(=O)c1ccc(Nc2c3c(nc4ccccc24)CCCC3)cc1 | > 35.9 µM (inactive) | 

Row | SMILES | IC50 | pIC50
27 | CCCC(=O)NC(c1ccc(Cl)cc1Cl)c1ccc2cccnc2c1O (configuration not stated) |  | 5.22
28 | CCOc1ccc(-c2cc(C)n3nc(C(N)=O)cc3n2)cc1 | inactive | 
29 | CC[C@@]1(O)C(=O)OCc2c1cc1n(c2=O)Cc2cc3c(NC(=O)CN)cccc3nc2-1 |  | 5.42
30 | c1ccc(-c2nnc(-c3ccccn3)nc2NC2CCCCC2)cc1 |  | 5.36
31 | COc1cc(NS(C)(=O)=O)ccc1Nc1c2ccccc2nc2ccccc12 | > 35.9 µM (inactive) | 
32 | COc1ccc(-c2cn[nH]c2-c2ccc(OC)cc2O)cc1 |  | 5.05
33 | C=CCn1c(O)c(C(C)=NCc2cc(OC)cc(OC)c2)c(=O)[nH]c1=O | > 35.9 µM (inactive) | 
34 | COc1ccccc1N(C(=O)CCl)c1cn(C(C)=O)c2ccccc12 | > 35.9 µM (inactive) | 
35 | Cc1ccc2occ(/C=N/NC(=O)c3ccccc3Br)c(=O)c2c1 | > 35.9 µM (inactive) | 
36 | CCN(c1cccc(C)c1)c1ncnc2nc[nH]c12 | inactive | 
37 | CC(C)(C)C(=O)Nc1ccc(N=Nc2ccccc2)cc1 | > 35.9 µM (inactive) | 
38 | O=c1[nH]c2ccccc2n1C1CCN(C(c2cc3ccccc3o2)c2nnnn2Cc2ccccc2)CC1 (configuration not stated) | inactive | 
39 | Cc1cc(-c2nnc(SCC(=O)Nc3ccccc3C(F)(F)F)o2)c(C)n1-c1ccccc1 | > 35.9 µM (inactive) | 
40 | O=[N+]([O-])c1nn(-c2ccc3c(c2)OCCO3)n(O)c1=Nc1ccccc1 |  | 6.09
41 | O=c1[nH]c2ccccc2n1C1CCN(C(c2ccccc2)c2nnnn2Cc2ccccc2)CC1 (configuration not stated) | inactive | 
42 | CCOC(=O)C(=CNc1ccc(NC2=NCC(C)S2)cc1)C(=O)OCC (configuration not stated) | > 35.8 µM (inactive) | 
43 | N#Cc1c2ccc(O)cc2n2ccccc12 | inactive | 
44 | COC(=O)c1c(C)n(-c2ccc(OC)cc2)c2ccc(O)cc12 |  | 5.09
45 | CCCc1c(C)nc2ccccc2c1SCCC#N |  | 5.02
46 | c1ccc2c(c1)Nc1ccncc1S2 | inactive | 
47 | COc1ccc(CCNC(=O)c2nnn(-c3ccc4c(c3)OCCO4)c2N)cc1OC | > 35.9 µM (inactive) | 
48 | C(=N\Nc1nc2ccccc2[nH]1)/c1cccc2cccnc12 | > 35.9 µM (inactive) | 
49 | C#CC(=O)N(c1cc(OC)ccc1OC)C(C(=O)NC1CCCC1)c1cccs1 (configuration not stated) | > 35.9 µM (inactive) | 
50 | CNc1ncnc(Sc2nc(N)nc3nc[nH]c23)c1[N+](=O)[O-] | > 35.9 µM (inactive) | 
51 | COc1ccc(-c2nsc3c(N4CCCCC4)ncnc23)cc1 | > 35.9 µM (inactive) | 
52 | C(=Cc1cnc2ccccc2n1)c1ccc2c(c1)OCO2 | inactive | 
